Experimental data as given in patent US20200069775A1, “BRAIN OSTEOCALCIN RECEPTOR AND COGNITIVE DISORDERS” (The Trustees of Columbia University in the City of New York, priority 2017, published 2020).

Assays:
Assay type in all cases: in vivo, mouse
Osteocalcin−/− mice = assay: Intracerebro-ventricular (ICV) infusion in Osteocalcin−/− mice, behavioral tests
Description: Osteocalcin−/−, Gprc6a−/−, Osteocalcin-mCherry, and Osteocalcin foxed mice have been previously described (Ducy et al., 1996, Nature 382:448-452; Oury et al., 2011, Cell 144:796-809). Mouse genotypes were determined by PCR. For all experiments, controls were littermate female WT, Cre-expressing, or flox/flox. All mice were maintained on a pure 129-Sv genetic background except for the inducible deletion Osteocalcin model (mix background: 25% C57/BL6 and 75% 129sv). For inducible gene deletion mice, tamoxifen was prepared in corn oil and injected intraperitoneally (IP) (1 mg/20g of body weight) over one week. For osteocalcin delivery to pregnant mice, IP injections (240 ng/day) were performed as soon as a plug was present daily until delivery (E0.5-E18.5). For osteocalcin or leptin infusion in adult Osteocalcin−/− or ob/ob mice, pumps (Alzet micro-osmotic pump, Model 1002) delivering osteocalcin (300 ng/hr), leptin (50 ng/hr), or vehicle were surgically installed subcutaneously in the backs of 3-month old mice. […] Leptin and osteocalcin content in sera and tissues were determined by ELISA.
Tail suspension testing was performed as previously described (Mayorga et al., 2001, J. Pharmacology Exper. Therapeutics 298:1101-1107; Stem et al., 1985, Psychopharmacology 85:367-370). […] The parameter recorded was the number of seconds spent immobile. Mice were scored by a highly trained observer, over a 5 min period, blind to the genotype of the mice.
Anxiety and locomotor activity of mice were measured using the open field test (David et al., 2009, Neuron 62:479-493). […] Mice were monitored throughout each test session by video tracking and analyzed using Matlab software. […] The overall motor activity was quantified as the total distance travelled. The anxiety was quantified measuring the number of rearings and the time and distance spent in the center versus periphery of the open field chamber (in %).
Each mouse was allowed to explore the apparatus for 5 min. Global activity was assessed by measuring the number of entries […] (David et al, 2009, Neuron 62:479-493). […]

[1] = test system: Osteocalcin−/− embryos and adult offspring of Osteocalcin−/− mothers; assay: Osteocalcin injections in pregnant Osteocalcin−/− mothers, analysis of offspring
Description: Osteocalcin−/−, Gprc6a−/−, Osteocalcin-mCherry, and Osteocalcin foxed mice have been previously described (Ducy et al., 1996, Nature 382:448-452; Oury et al., 2011, Cell 144:796-809). Mouse genotypes were determined by PCR. For all experiments, controls were littermate female WT, Cre-expressing, or flox/flox. All mice were maintained on a pure 129-Sv genetic background except for the inducible deletion Osteocalcin model (mix background: 25% C57/BL6 and 75% 129sv). For inducible gene deletion mice, tamoxifen was prepared in corn oil and injected intraperitoneally (IP) (1 mg/20g of body weight) over one week. For osteocalcin delivery to pregnant mice, IP injections (240 ng/day) were performed as soon as a plug was present daily until delivery (E0.5-E18.5). For osteocalcin or leptin infusion in adult Osteocalcin−/− or ob/ob mice, pumps (Alzet micro-osmotic pump, Model 1002) delivering osteocalcin (300 ng/hr), leptin (50 ng/hr), or vehicle were surgically installed subcutaneously in the backs of 3-month old mice. For the postnatal rescue of cognitive functions in Osteocalcin−/− mice, osteocalcin (10 ng/hour) or vehicle were delivered intrasubventricularly (icv) as previously described (Ducy et al., 2000, Cell 100:197-207). Leptin and osteocalcin content in sera and tissues were determined by ELISA.
Cresyl violet staining to visualize brain morphology was carried out by incubating 20 μm cryosections defatted with 1:1 chloroform:ethanol in cresyl violet acetate (1 g/L) overnight. The stain was differentiated using ethanol and xylene and mounted using DPX mounting medium for histology (Sigma).
To assess apoptosis in WT and Osteocalcin−/− brains, 20 μm cryostat sections were processed using theAPOPTAG® Fluorescein Direct In Situ Apoptosis Detection Kit (Millipore) according to manufacturer's protocol. Images were obtained using Leica DM 4000B, and Image J was used to quantify cell number and intensity of staining.
For western blotting, frozen hippocampi from E18.5 embryos were lysed and homogenized in 250 μl tissue lysis buffer (25 mM Tris HCl 7.5; 100 mM NaF; 10 mM Na4P2O7; 10 mmM EDTA; 1% NP 40). Samples were pooled together in threes by genotype to reduce variability. Proteins were transferred to nitrocellulose membranes and blocked with TBST-5% milk prior to overnight incubation with primary antibody in TBST-5% BSA. HRP-coupled secondary antibodies and ECL were used to visualize the signal.
To further evaluate the importance of maternal osteocalcin for the acquisition of spatial learning and memory in adult offspring, pregnant Osteocalcin^−/− mothers from E0.5 to E18.5 were treated with injections, once a day, of osteocalcin (240 ng/day). Osteocalcin was never injected in these females or their pups after delivery. […] Likewise, the number of apoptotic cells was reduced and the number of NeuN positive cells was increased compared to Osteocalcin^−/− embryos originating from Osteocalcin^−/− mothers that were not injected (FIG. 7I-J).

16 month old WT mice = assay: ICV delivery in aged WT mice, modified Novel Object Recognition test; details: ICV 10 ng/hr, one month
Description: ICV pumps delivering (10 ng/hr) recombinant uncarboxylated full-length mouse osteocalcin were implanted in 16 month old WT mice. After an infusion period of one month, the mice were subjected to a modified version of the Novel Object Recognition test, to assay memory and hippocampal function. Briefly, mice were given five 5 minute exposures, with 3 minute resting intervals between exposures, to a novel arena containing two objects. During exposures 1-4, mice were habituated to these two objects, which elicited equal amounts of exploration. In the fifth exposure, one of the objects was replaced with a novel object.

[2] = Osteocalcin−/− embryos, injected vs not injected Osteocalcin−/− mothers
[3] = mothers injected 240 ng/day once a day E0.5 to E18.5

Q: With “osteocalcin: Recombinant osteocalcin bacterially produced, cleaved from the GST subunit; completely undercarboxylated at all three sites; full-length mouse osteocalcin (YLGASVPSPDPLEPTREQCELNPACDELSDQYGLKTAYKRIYGITI)” as the substance, how does the “anxiety and depression features” value (Osteocalcin−/− mice; Osteocalcin−/− mice, ICV 10 ng/hour, week-long treatment) read?
A: The value was “corrected the anxiety and depression features”.

Q: What about the “leakage of centrally delivered hormone into the general circulation (osteocalcin in blood)” value (Osteocalcin−/− mice; Osteocalcin−/− mice, ICV infusion) of the same substance?
A: Its value is “no leakage”.

Q: And the “defects in anxiety, depression, learning, and memory” value (Osteocalcin−/− mice; direct administration to the brains of adult Osteocalcin−/− mice)?
A: The value was “rescued defects in anxiety, depression, learning, and memory”.

Q: What about the “Caspase-3 cleaved protein level in the hippocampus (Western blot)” value ([1]; Osteocalcin−/− E18.5 embryos, injected vs not injected mothers) of the same substance?
A: The value was “decrease in Caspase-3 cleaved protein level”.

Q: And the “number of NeuN positive cells” value [1, 2]?
A: Its value is “increased”.

Q: And the “number of apoptotic cells” value [1, 2]?
A: Its value is “reduced”.

Q: And the “number of apoptotic cells” value ([1]; Osteocalcin−/− embryos, injected vs not injected Osteocalcin−/− mothers, listed as Uncarboxylated osteocalcin)?
A: Its value is “prevent this neuronal apoptosis”.

Q: What about the “thickness defect in the CA3 and CA4 regions of the hippocampus” value ([1]; adult Osteocalcin−/− originating from Osteocalcin−/− mothers) of the same substance?
A: The value was “rescue of the thickness defect”.

Q: What about the “cerebral ventricle enlargement (cresyl violet)” value ([1]; brains of E18.5 Osteocalcin−/− embryos, injected mothers) of the same substance?
A: Its value is “rescue of the cerebral ventricle enlargement”.

Q: And the “anxiety or depression phenotypes of Osteocalcin−/− offspring” value [1, 3]?
A: Its value is “did not have any beneficial effect”.

Q: And the “deficit in learning and memory of Osteocalcin−/− offspring” value [1, 3]?
A: Its value is “rescued over two third of their deficit”.

Q: And the “discrimination between novel and constant objects” value (16 month old WT mice)?
A: The value was “able to discriminate between the novel and constant objects”.

Q: And the “time exploring the novel object (Novel Object Recognition)” value (16 month old WT mice)?
A: Its value is “spent less time exploring the novel object than mice treated with vehicle alone”.
